One assay has as its target CDK4/D3 (Homo sapiens, UniProt P11802). As to the kind of experiment: In vitro enzyme-inhibiting activity, Caliper Mobility Shift method. Type of assay: biochemical. As to conditions: read-out: CDK enzyme-inhibiting activity IC50 CDK4/D3.
The subject of another assay is MV-4-11 leukemia cell. Put plainly: BrdU cell proliferation assay (PerkinElme kit). Type of assay: cell-based. As to conditions: Homo sapiens, MV4-11, 48 h; read-out: In vitro cell-inhibiting activity IC50 MV-4-11. The protocol: Experimental method: cell proliferation assay was carried out by BrdU method (BrdU cell proliferation assay kit, PerkinElme Company).
Preparation of gradient dilution solutions of test compound: the stock solution containing 5 mM test compound was diluted by DMSO to prepare a 2 mM solution, then was subjected to 4-fold stepwise dilution to 9 concentration gradients.
MV-4-11 medium: IMDM+10% FBS
(1) Cells grown to exponential growth phase were digested with pancreatin, and centrifuged to collect the cells. The adherent cells were re-suspended in the corresponding culture medium, counted, and seeded to a 96-well plate; H358 cells and SW780 cells were seeded at 4000 cells/well/100 μL; PC3 cells were seeded at 1500 cells/well/100 μL; H441 cells were seeded at 6000 cells/well/100 μL. The plates were placed in a cell incubator at 37° C. After the cells adhered to the wall, the medium was replaced by serum-free medium. The suspended cells MV-4-11 and JeKo-1 were re-suspended with serum-free medium, counted, seeded to a 96-well plate by 10000 cells/well/100 μL and placed in a cell incubator overnight at 37° C. with 5% CO2. […]
(6) To each well, 200 μL of DELFIA Inducer was added and incubated for 15 min at room temperature. Value of fluorescence (Flu) was measured by ELISA instrument […]

Among the data in US9949976B2, “Kinase inhibitor and use thereof” (Sihuan Pharmaceutical Holdings Group Ltd., priority 2013, dated 2018) are IC50 values, retold here.

Sequence of CDK4/D3 (P11802 whole entry): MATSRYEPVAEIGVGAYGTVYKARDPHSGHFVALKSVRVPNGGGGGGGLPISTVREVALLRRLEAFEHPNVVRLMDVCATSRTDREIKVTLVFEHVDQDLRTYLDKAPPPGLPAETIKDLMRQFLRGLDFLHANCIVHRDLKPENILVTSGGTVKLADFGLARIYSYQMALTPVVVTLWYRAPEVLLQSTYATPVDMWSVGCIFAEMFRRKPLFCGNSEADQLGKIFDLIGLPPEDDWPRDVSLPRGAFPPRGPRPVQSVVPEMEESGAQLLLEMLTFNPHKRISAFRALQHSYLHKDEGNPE
Sequence of CDK4/D3 (P30281 whole entry partner): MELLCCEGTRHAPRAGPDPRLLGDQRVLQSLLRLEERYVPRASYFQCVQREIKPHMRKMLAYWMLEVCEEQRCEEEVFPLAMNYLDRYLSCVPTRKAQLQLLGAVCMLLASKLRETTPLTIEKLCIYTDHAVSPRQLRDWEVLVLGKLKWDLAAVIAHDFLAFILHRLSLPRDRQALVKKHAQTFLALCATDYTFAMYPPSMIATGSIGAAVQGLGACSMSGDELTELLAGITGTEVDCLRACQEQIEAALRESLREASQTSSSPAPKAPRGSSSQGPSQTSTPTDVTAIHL
Description for CDK4/D3: Measurement of activity for inhibiting CDK4/6 kinase by Caliper Mobility Shift method.
1) Preparation of 1-Fold Buffer for CDK4 Kinase 800 μL stock solution containing 1000 mM HEPES (pH 7.5), and 40 μL stock solution containing 10% Triton X-100, were added to 39160 μL ultra pure water, and the resultant mixture was mixed homogeneously.
25 mL stock solution containing 4% Coating Reagent #3 (provided with the 12-sipper chip used in Caliper device), 50 mL stock solution containing 1000 mM HEPES (pH 7.5), 50 mL stock solution containing 0.5 M EDTA, and 0.25 mL stock solution containing 30% Brij-35, were added to 374.75 mL ultra pure water, and the resultant mixture was mixed homogeneously.
7 μL CDK4/D3 enzyme solution, and 9 μL stock solution containing 1M DTT were added to 1784 μL 1-fold CDK4 kinase buffer, and the resultant mixture was mixed homogeneously.
10 μL stock solution containing 100 mM ATP, 45 μL stock solution containing 1M MgCl2, and 45 μL FAM-tagged polypeptide 8, were added to 1700 μL 1-fold CDK4 kinase buffer, and the resultant mixture was mixed homogeneously.
DMSO solution containing 10 mM test compound was diluted with DMSO to a solution containing 50 μM test compound (which was used as a stock solution).
1) 5 μL 5-fold test compound solution and 10 μL 2.5-fold kinase solution were added to the corresponding wells in a 384-well plate, and incubated at room temperature for 10 min.
2) To the corresponding wells, 10 μL 2.5-fold polypeptide solution was added to start the enzymatic reaction, and incubation was performed at 28° C. for 5 h.
To the corresponding wells, 25 μL stop solution was added to stop the reaction.
The data was read by Caliper device, the inhibition rate was calculated by the following formula, and curve fitting was carried out by GraphPad5.0 software to get IC50 value. Inhibition rate=(maximal value−sample value)/(maximal value−minimal value)×100, wherein, maximal value: positive control without addition of test compound; minimal value: negative control without addition of enzyme.

`CCN1CCN(Cc2cnc(Nc3cc(-c4cc(F)c5nc(C)n(C(C)C)c5c4)c(F)cn3)nc2)CC1` [Compound 1, 5-((4-ethylpiperazin-1-yl)methyl)-N-(5-fluoro-4-(4-fluoro-1-isopropyl-2-methyl-1H-benzo[d]imidazol-6-yl)pyridin-2-yl)pyrimidin-2-amine]: the results for the IC50 on CDK4/D3 and in the assay with MV-4-11 leukemia cell were 0.0027 µM and 0.139 µM, respectively.
